These results are taken from patent US6790854B2, “Diphenylalkylamine derivatives useful as opioid receptor agonists” (Meiji Seika Kaisha, Ltd., priority 2000, dated 2004).

The target in the test is T1, opioid δ receptor (Rattus norvegicus, UniProt P33533).
T1 construct: A membrane fraction of opioid δ receptor was prepared from the rat forebrain; from tissue; host or cells: rat forebrain membrane fraction
Briefly: Binding affinity for opioid δ receptor ([3H]-Naltrindole displacement, rat forebrain membrane fraction). The settings on record: [3H]-Naltrindole 1 nM, 25° C., 90 minutes, Ki calculated from IC50 by the Cheng-Prusoff equation.

Molecules are shown by their SMILES.

By Ki is commonly meant a measure of affinity in units of concentration, obtained from inhibition or displacement.

T1 sequence (P33533 whole entry): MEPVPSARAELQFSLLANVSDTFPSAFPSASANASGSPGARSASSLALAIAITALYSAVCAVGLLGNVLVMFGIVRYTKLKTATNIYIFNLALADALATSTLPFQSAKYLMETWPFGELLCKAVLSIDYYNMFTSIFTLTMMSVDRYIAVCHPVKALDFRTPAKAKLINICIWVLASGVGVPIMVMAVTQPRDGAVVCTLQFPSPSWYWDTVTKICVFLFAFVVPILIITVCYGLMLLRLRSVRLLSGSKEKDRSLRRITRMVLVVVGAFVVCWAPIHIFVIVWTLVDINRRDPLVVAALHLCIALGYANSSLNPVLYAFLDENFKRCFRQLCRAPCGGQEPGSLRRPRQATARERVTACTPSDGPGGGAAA

On to `CCN(CC)C(=O)c1ccc(C(CCN2CCC3(CC2)CNC(=O)c2cccc(C)c23)c2ccccc2OC)cc1` (stereo not shown) [Example 9, 1′-[3-(4-Diethylcarbamoylphenyl)-3-(2-methoxyphenyl)Propyl]-2,3-dihydro-5-methylspiro [isoquinoline-4(1H),4′-piperidin]-1-one], for which the Ki is 1210 nM.
